In the supplement of paper PMC10307832:

Columns and labels:
Experiment in all cases: relative viability (nuclei count vs DMSO), 5 days (fraction); higher = more cells survive
201T = system: 201T
Method in brief: (§1)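 Relative viability is defined as nuclei in treated wells over nuclei in vehicle wells. Duplicate plates were run and medians reported. Lung cancer cell lines in 1536-well plates were dosed by pin tool one day after seeding, with one drug or with a fixed anchor-drug dose plus five library-drug doses (not always all listed) in √10 steps, and nuclei were counted after 5 days.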

BEN = system: BEN
Method in brief: as §1

CAL-12T = system: CAL-12T
Method in brief: as §1

HCC-827 = system: HCC-827
Method in brief: as §1

LCLC-103H = system: LCLC-103H
Method in brief: as §1

LCLC-97TM1 = system: LCLC-97TM1
Method in brief: as §1

LXF-289 = system: LXF-289
Method in brief: as §1

NCI-H1395 = system: NCI-H1395
Method in brief: as §1

NCI-H1437 = system: NCI-H1437
Method in brief: as §1

NCI-H1650 = system: NCI-H1650
Method in brief: as §1

NCI-H1793 = system: NCI-H1793
Method in brief: as §1

NCI-H1944 = system: NCI-H1944
Method in brief: as §1

NCI-H2087 = system: NCI-H2087
Method in brief: as §1

NCI-H2228 = system: NCI-H2228
Method in brief: as §1

NCI-H2405 = system: NCI-H2405
Method in brief: as §1

NCI-H3122 = system: NCI-H3122
Method in brief: as §1

NCI-H322M = system: NCI-H322M
Method in brief: as §1

NCI-H647 = system: NCI-H647
Method in brief: as §1

NCI-H727 = system: NCI-H727
Method in brief: as §1

RERF-LC-KJ = system: RERF-LC-KJ
Method in brief: as §1

SK-LU-1 = system: SK-LU-1
Method in brief: as §1

`O=c1cc(N2CCOCC2)oc2c(-c3cccc4c3sc3ccccc34)cccc12` + COc1cc2c(Oc3ccc(NC(=O)C4(C(=O)Nc5ccc(F)cc5)CC4)cc3F)ccnc2cc1OCCCN1CCOCC1 [Foretinib] (partner 0.25 µM) showed a relative viability (201T; first compound 0.01 µM) of 1.1, a relative viability (201T; first compound 0.03162 µM) of 1.13 and a relative viability (201T; first compound 0.1 µM) of 1.1. It also gave a relative viability (201T; first compound 0.3162 µM) of 0.963, a relative viability (201T; first compound 1 µM) of 1.06 and a relative viability (BEN; first compound 0.01 µM) of 0.548. It also gave a relative viability (BEN; first compound 0.03162 µM) of 0.861, a relative viability (BEN; first compound 0.1 µM) of 0.57 and a relative viability (BEN; first compound 0.3162 µM) of 0.701. It also gave a relative viability (BEN; first compound 1 µM) of 0.578, a relative viability (CAL-12T; first compound 0.01 µM) of 1.12 and a relative viability (CAL-12T; first compound 0.03162 µM) of 0.973. It also gave a relative viability (CAL-12T; first compound 0.1 µM) of 1.14, a relative viability (CAL-12T; first compound 0.3162 µM) of 1.03 and a relative viability (CAL-12T; first compound 1 µM) of 1.11. The relative viability (HCC-827; first compound 0.01 µM) was 1.01, the relative viability (HCC-827; first compound 0.03162 µM) was 1.11 and the relative viability (HCC-827; first compound 0.1 µM) was 1.03. For the same compound, the relative viability (HCC-827; first compound 0.3162 µM) was 1.04, the relative viability (HCC-827; first compound 1 µM) was 1.03 and the relative viability (LCLC-103H; first compound 0.01 µM) was 0.685. It also gave a relative viability (LCLC-103H; first compound 0.03162 µM) of 0.786, a relative viability (LCLC-103H; first compound 0.1 µM) of 0.806 and a relative viability (LCLC-103H; first compound 0.3162 µM) of 0.824. It also gave a relative viability (LCLC-103H; first compound 1 µM) of 0.746, a relative viability (LCLC-97TM1; first compound 0.01 µM) of 0.905 and a relative viability (LCLC-97TM1; first compound 0.03162 µM) of 0.926. For the same compound, the relative viability (LCLC-97TM1; first compound 0.1 µM) was 0.937, the relative viability (LCLC-97TM1; first compound 0.3162 µM) was 0.897 and the relative viability (LCLC-97TM1; first compound 1 µM) was 0.92. For the same compound, the relative viability (LXF-289; first compound 0.01 µM) was 0.969, the relative viability (LXF-289; first compound 0.03162 µM) was 0.984 and the relative viability (LXF-289; first compound 0.1 µM) was 1. It also gave a relative viability (LXF-289; first compound 0.3162 µM) of 0.97, a relative viability (LXF-289; first compound 1 µM) of 0.965 and a relative viability (NCI-H1395; first compound 0.01 µM) of 0.995. For the same compound, the relative viability (NCI-H1395; first compound 0.03162 µM) was 0.915, the relative viability (NCI-H1395; first compound 0.1 µM) was 0.973 and the relative viability (NCI-H1395; first compound 0.3162 µM) was 1.17. For the same compound, the relative viability (NCI-H1395; first compound 1 µM) was 0.986, the relative viability (NCI-H1437; first compound 0.01 µM) was 0.877 and the relative viability (NCI-H1437; first compound 0.03162 µM) was 1.28. It also gave a relative viability (NCI-H1437; first compound 0.1 µM) of 1.26, a relative viability (NCI-H1437; first compound 0.3162 µM) of 1.25 and a relative viability (NCI-H1437; first compound 1 µM) of 1.23. It also gave a relative viability (NCI-H1650; first compound 0.01 µM) of 1.09, a relative viability (NCI-H1650; first compound 0.03162 µM) of 1.09 and a relative viability (NCI-H1650; first compound 0.1 µM) of 1.04. For the same compound, the relative viability (NCI-H1650; first compound 0.3162 µM) was 1.21, the relative viability (NCI-H1650; first compound 1 µM) was 1.19 and the relative viability (NCI-H1793; first compound 0.01 µM) was 0.594. It also gave a relative viability (NCI-H1793; first compound 0.1 µM) of 0.568, a relative viability (NCI-H1793; first compound 0.3162 µM) of 0.685 and a relative viability (NCI-H1793; first compound 1 µM) of 0.486. It also gave a relative viability (NCI-H1944; first compound 0.01 µM) of 0.876, a relative viability (NCI-H1944; first compound 0.03162 µM) of 0.928 and a relative viability (NCI-H1944; first compound 0.1 µM) of 0.829. For the same compound, the relative viability (NCI-H1944; first compound 0.3162 µM) was 0.89, the relative viability (NCI-H1944; first compound 1 µM) was 0.821 and the relative viability (NCI-H2087; first compound 0.01 µM) was 1.09. The relative viability (NCI-H2087; first compound 0.03162 µM) was 1.4, the relative viability (NCI-H2087; first compound 0.1 µM) was 1.28 and the relative viability (NCI-H2087; first compound 0.3162 µM) was 1.24. For the same compound, the relative viability (NCI-H2087; first compound 1 µM) was 1.2, the relative viability (NCI-H2228; first compound 0.01 µM) was 0.864 and the relative viability (NCI-H2228; first compound 0.03162 µM) was 1.08. The relative viability (NCI-H2228; first compound 0.1 µM) was 0.981, the relative viability (NCI-H2228; first compound 0.3162 µM) was 0.89 and the relative viability (NCI-H2228; first compound 1 µM) was 0.9. The relative viability (NCI-H2405; first compound 0.01 µM) was 1.07, the relative viability (NCI-H2405; first compound 0.03162 µM) was 1.07 and the relative viability (NCI-H2405; first compound 0.1 µM) was 1.12. The relative viability (NCI-H2405; first compound 0.3162 µM) was 1.03, the relative viability (NCI-H2405; first compound 1 µM) was 1.02 and the relative viability (NCI-H3122; first compound 0.01 µM) was 0.953. It also gave a relative viability (NCI-H3122; first compound 0.03162 µM) of 0.918, a relative viability (NCI-H3122; first compound 0.1 µM) of 1 and a relative viability (NCI-H3122; first compound 0.3162 µM) of 0.932. It also gave a relative viability (NCI-H3122; first compound 1 µM) of 0.954, a relative viability (NCI-H322M; first compound 0.01 µM) of 0.91 and a relative viability (NCI-H322M; first compound 0.03162 µM) of 0.903. The relative viability (NCI-H322M; first compound 0.1 µM) was 0.888, the relative viability (NCI-H322M; first compound 0.3162 µM) was 0.917 and the relative viability (NCI-H322M; first compound 1 µM) was 0.849. It also gave a relative viability (NCI-H647; first compound 0.01 µM) of 1.24, a relative viability (NCI-H647; first compound 0.03162 µM) of 1.34 and a relative viability (NCI-H647; first compound 0.1 µM) of 1.34. For the same compound, the relative viability (NCI-H647; first compound 0.3162 µM) was 1.24, the relative viability (NCI-H647; first compound 1 µM) was 1.08 and the relative viability (NCI-H727; first compound 0.01 µM) was 1.05. The relative viability (NCI-H727; first compound 0.03162 µM) was 0.822, the relative viability (NCI-H727; first compound 0.1 µM) was 0.908 and the relative viability (NCI-H727; first compound 0.3162 µM) was 1. For the same compound, the relative viability (NCI-H727; first compound 1 µM) was 0.865, the relative viability (RERF-LC-KJ; first compound 0.01 µM) was 0.831 and the relative viability (RERF-LC-KJ; first compound 0.03162 µM) was 0.876. For the same compound, the relative viability (RERF-LC-KJ; first compound 0.1 µM) was 0.91, the relative viability (RERF-LC-KJ; first compound 0.3162 µM) was 0.852 and the relative viability (RERF-LC-KJ; first compound 1 µM) was 0.846. For the same compound, the relative viability (SK-LU-1; first compound 0.01 µM) was 0.893, the relative viability (SK-LU-1; first compound 0.03162 µM) was 0.918 and the relative viability (SK-LU-1; first compound 0.1 µM) was 0.789. For the same compound, the relative viability (SK-LU-1; first compound 0.3162 µM) was 0.834 and the relative viability (SK-LU-1; first compound 1 µM) was 0.768.
